The structures appear in SMILES notation.

The nature of the data set: gradient 5% acetonitrile 3 min, to 50% in 2 min, to 85% in 15 min, held 3 min, 100 µL/min. To be noted: column: Zorbax Extend-C18 2.1 x 50 mm; eluents: water / acetonitrile, 0.1% formic acid. In a few lines: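 The mobile phases were water and acetonitrile, each with 0.1% formic acid, pumped at 100 μL/min through a Zorbax Extend-C18 column (2.1 × 50 mm, 1.8 μm). Pure standards were injected as mixtures of ~100 molecules and detected by a quadrupole time-of-flight mass spectrometer in positive and negative ionization mode. Retention time came from computationally picked adduct peaks, each inspected by hand.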
Regarding `COc1ccc(-c2nc(-c3ccc4c(c3)oc(=O)n4C(C)C)no2)cc1OC`, the RP-LC retention time stood at 1070 s.

As to `COc1ccc(C(=O)N2CCC3(CC2)N=C(c2ccc(Br)cc2)NO3)c(OC)c1`, the RP-LC retention time stood at 886 s.

`O=C(Nc1cccc2c1CCCC2)C1CCN(S(=O)(=O)c2cccc3nonc23)CC1`: the RP-LC retention time was found to be 990 s.

As to `COc1ccc(C2Cn3nnc(-c4nc(-c5ccccc5C)no4)c3CO2)cc1` (configuration not stated), the RP-LC retention time was 1200 s.

`O=C(NCc1ccccc1Cl)c1ccc2c(cnn2CC(=O)N2CCCCCC2)c1` gave an RP-LC retention time of 830 s.

Turning to `Cn1ncn2cc(S(=O)(=O)NCc3ccc(Cl)cc3)cc2c1=O`, the RP-LC retention time was 817 s.

In the case of `C#CCOCC1CN(c2ccccc2)C(=O)O1` (configuration not stated), the RP-LC retention time was found to be 833 s.

For the compound `CCCCC(=O)Nc1ccc2nc(N3CCN(c4ccc(OC)cc4)CC3)cc(C(=O)O)c2c1`, the RP-LC retention time stood at 673 s.

`COC(=O)c1cccc(Nc2c(-c3ccc(SC)cc3)nc3cnccn23)c1` came in with an RP-LC retention time of 887 s.

With `COc1ccc(Nc2c(-c3ccc(N(C)C)cc3)nc3cnccn23)cc1OC`, the RP-LC retention time was 687 s.

Compound `COCC(=O)Nc1cc2c(cc1N(C)C)n(C)c(=O)c(=O)n2C` yielded an RP-LC retention time of 606 s.

The compound `CN1[C@@H]2CC[C@H]1CC(OC(=O)C(CO)c1ccccc1)C2` (some centres not stated) yielded an RP-LC retention time of 613 s.

For `COc1ccc(CNC(=O)C2(C)CCN(C(=O)Nc3ccc(C)c(F)c3)CC2)cc1`, the RP-LC retention time came to 880 s.

In the case of `CCOc1ccc(NS(=O)(=O)c2cc(C(=O)Nc3ccc(F)cc3)n[nH]2)cc1`, the RP-LC retention time came out at 851 s.

In turn, `Cc1nc(-c2ccccc2)cc2nn(CC(=O)N3CCC(C)CC3)c(=O)n12` came in with an RP-LC retention time of 903 s.

In turn, `COCCN(CC(=O)N1CCc2sccc2C1COc1ccccc1OC)C(=O)C(C)C` (configuration not stated) yielded an RP-LC retention time of 845 s.

`CCN1C(=O)Cc2cc(C(=O)NCc3ccc(Br)cc3)ccc21` came in with an RP-LC retention time of 807 s.

With `O=C(NCC1(c2ccccc2)CCOCC1)C(=O)Nc1cc2c3c(c1)CCC(=O)N3CCC2`, the RP-LC retention time worked out at 762 s.

Compound `CCN1CCCC1CNC(=O)c1nnc(-c2oc3c(C)cccc3c2C)o1` (configuration not stated) showed an RP-LC retention time of 725 s.

The compound `O=C(Nc1ccc(F)c(Cl)c1)N1CCc2nc(-c3ccccc3)ncc2C1` gave an RP-LC retention time of 1010 s.

`O=C(NCc1[nH]nc2ccccc12)c1ccoc1` gave an RP-LC retention time of 655 s.

For `COc1cc(OC)cc(-c2nc(Cn3c(C)nc4ccccc4c3=O)no2)c1`, the RP-LC retention time amounted to 876 s.

On to `CN(C)C(=O)c1nc2ccccn2c1-c1ccc(Cl)cc1`, for which the RP-LC retention time was determined as 674 s.

The compound `COc1ccc(NC(=O)Cn2nc3c(Oc4cccc(Cl)c4)nccn3c2=O)cc1` displayed an RP-LC retention time of 859 s.

Compound `CN(C)C(=O)CSc1ncnc2sccc12` showed an RP-LC retention time of 627 s.

`Cn1cnc2cc(-c3noc(C4CC(=O)N(c5cccc(Cl)c5)C4)n3)ccc21` (configuration not stated) yielded an RP-LC retention time of 697 s.

As for `Cc1nc(-c2ccc(C(=O)NC3CC3)cc2)cs1`, the RP-LC retention time was 706 s.

As for `O=C(NCCn1cnc2cc(C(=O)N3CCCC3)ccc21)NCc1ccco1`, the RP-LC retention time amounted to 985 s.

`CCN(C(=O)Cc1ccc(OC)cc1)c1nc(-c2ccccc2)cs1` gave an RP-LC retention time of 1260 s.

In turn, `O=C(NCc1ccccn1)C1CCN(c2nc3cccnc3s2)CC1` showed an RP-LC retention time of 588 s.

Compound `CCOc1ccccc1C(=O)N1CCc2[nH]cnc2C12CCCCC2` yielded an RP-LC retention time of 641 s.

With `CCn1ccc(C(=O)N2CCC(c3noc(-c4cnccn4)n3)C2)n1` (configuration not stated), the RP-LC retention time came out at 634 s.

In turn, `COC(=O)COC(=O)c1cn(-c2ccc(F)cc2)c(=O)c2ccccc12` registered an RP-LC retention time of 919 s.

In turn, `Cc1csc(-c2cc(S(=O)(=O)NCCc3cccs3)c(C)n2C)n1` yielded an RP-LC retention time of 973 s.

The compound `COCCNC(=O)Cn1ccc2c(SCc3ccc(C)cc3)nccc21` gave an RP-LC retention time of 658 s.

`Cc1ncsc1CN1CCCC(n2c(C)cnc2-c2ccncc2)C1` (configuration not stated) had an RP-LC retention time of 533 s.

For the compound `COc1ccc(-c2nnc(CC(=O)NCc3ccccn3)o2)cc1`, the RP-LC retention time amounted to 588 s.

`O=C(c1csc(S(=O)(=O)N2CCC(C(=O)N3CCCC3)CC2)c1)N1CCCC1` displayed an RP-LC retention time of 661 s.

In turn, `Cn1c(=O)c2c(nc(N3CCOCC3)n2C)n(C)c1=O` registered an RP-LC retention time of 663 s.

For the compound `Cc1ccc2c(Nc3cccc(C(C)C)c3)c(C(=O)N3CCSCC3)cnc2n1`, the RP-LC retention time was 688 s.

As for `O=S(=O)(NCc1ccc(F)cc1)c1ccccc1-c1nc(-c2ccccc2)no1`, the RP-LC retention time came out at 1160 s.

Compound `O=C1NC2(CCN(C(=O)c3ccccc3)CC2)N=C1c1cccc(Cl)c1` yielded an RP-LC retention time of 869 s.

In the case of `CCn1cc(C(=O)NCCc2ccc(Cl)cc2)c(S(=O)(=O)N2CCSCC2)n1`, the RP-LC retention time amounted to 935 s.

As for `O=C(Nc1ccc2sccc2c1)c1ccc([N+](=O)[O-])s1`, the RP-LC retention time turned out to be 924 s.

Compound `O=C(CN1C(=O)CSc2ccc(C(=O)N3CCCC3)cc21)NC1CCCCCCC1` showed an RP-LC retention time of 760 s.

As to `Cc1ccc2c(=O)c(C(=O)N3CCCCC3)cn(CC(=O)NCc3ccccc3)c2n1`, the RP-LC retention time was determined as 753 s.

As for `CCc1ccc(NS(=O)(=O)c2cc(-c3[nH]ncc3C(=O)N3CCCCC3)oc2C)cc1`, the RP-LC retention time turned out to be 822 s.

`Cc1cc(OCC(O)CNCc2ccco2)ccc1Cl` (configuration not stated) yielded an RP-LC retention time of 588 s.

As to `CCCN(C(=O)c1ccco1)c1nc(-c2ccccc2)cs1`, the RP-LC retention time was 1250 s.

With `CCOc1cccc(C2CC(c3ccccc3)=NC3(CCN(C(C)C)CC3)N2)c1O` (configuration not stated), the RP-LC retention time was 612 s.

On to `CCN1CCCn2nc(C3CCN(C(=O)C4CCCC4)CC3)cc2C1=O`, for which the RP-LC retention time amounted to 686 s.

Regarding `CC(C)c1ccc(C(C)NC(=O)C2CCN(Cc3cn(C)c4ccccc34)CC2)cc1` (configuration not stated), the RP-LC retention time was 804 s.

Take `Cc1nc(-c2cnccn2)nc2c1CCC(=O)N2Cc1ccncc1`: the RP-LC retention time is 510 s.

As to `Cc1nn(Cc2ccc(C(=O)NC3CC3)cc2)c(C)c1S(=O)(=O)N1CCC(C)CC1`, the RP-LC retention time worked out at 859 s.

Take `CCCCn1c(=O)c2ccccc2n(Cc2nc(-c3cccc(C)c3)no2)c1=O`: the RP-LC retention time is 1230 s.

`CCOCCOC1CCN(C(=O)Nc2ccc3c(c2)OCCO3)CC1`: the RP-LC retention time came out at 708 s.

For the compound `O=C(NCCc1noc(C2CC2)n1)C1CCCC1`, the RP-LC retention time is 699 s.

Compound `Cc1ccc(NC(=O)Cn2cnc3nc(N4CCCC(C(=O)NC5CC5)C4)sc3c2=O)cc1` (configuration not stated) came in with an RP-LC retention time of 674 s.

As for `O=C(Nc1ccccc1F)C1CCc2sc(C(=O)N3CCCC3)cc2C1` (configuration not stated), the RP-LC retention time was determined as 761 s.

Compound `CCC(C)C(=O)N1CCCN(C2=NS(=O)(=O)C(c3ccc(C(C)C)cc3)=C2C)CC1` (configuration not stated) had an RP-LC retention time of 974 s.

In turn, `O=C(NCc1ccco1)c1coc(NC(=O)C2CC2)n1` displayed an RP-LC retention time of 600 s.

Regarding `NC(=O)N1CCC(CC(=O)N2CCC([C@H]3c4ncc(Br)cc4CCc4cc(Cl)cc(Br)c43)CC2)CC1`, the RP-LC retention time stood at 1040 s.

For `CCOC(=O)c1cc(S(=O)(=O)N2CCCC2C(=O)NC2CCCCCCC2)cn1C` (configuration not stated), the RP-LC retention time stood at 1020 s.

On to `CCOc1ccc(S(=O)(=O)N2CCCC(C(=O)NCC3CCCO3)C2)cc1` (configuration not stated), for which the RP-LC retention time amounted to 788 s.

Consider `CCCn1cc(C(=O)NCc2ccc(N(C)C)cc2)c2cccnc21`, for which the RP-LC retention time worked out at 630 s.

In turn, `O=C(NCCC1=CCCCC1)C1CCCN(c2ccncc2)C1` (configuration not stated) came in with an RP-LC retention time of 645 s.

`Cc1c(C2CCN(C(=O)NCc3ccccc3)CC2)noc1N`: the RP-LC retention time came out at 639 s.

For `COc1ccc2c(c1)C1(CCN(C(=O)COc3cccc(C)c3)C1)C(=O)N2` (configuration not stated), the RP-LC retention time turned out to be 668 s.

`O=C(CCCCCCSc1ccc2ccccc2c1)NO` yielded an RP-LC retention time of 863 s.

On to `O=C(Nc1ccccc1F)C1CCc2nc(N3CCCCC3)ncc2C1` (configuration not stated), for which the RP-LC retention time came out at 772 s.

Consider `O=C1CCc2cc(NC(=O)c3cncc(Br)c3)ccc2N1`, for which the RP-LC retention time is 649 s.

In turn, `CCCNC(=O)Cn1cc(C(=O)Nc2ccc(Cl)cc2)c(=O)c2ccc(C)nc21` displayed an RP-LC retention time of 962 s.

In the case of `O=C(Nc1cc(F)ccc1F)N1CCCC1c1nncn1-c1ccccc1` (configuration not stated), the RP-LC retention time stood at 717 s.

Compound `O=c1n(Cc2cc(F)cc(F)c2)nc2c(-c3nc(-c4cccc(F)c4)no3)cccn12` came in with an RP-LC retention time of 1050 s.

Take `CC1CCN(C(=O)C2c3ccccc3CCN2CC(=O)NCc2ccccc2)CC1` (configuration not stated): the RP-LC retention time worked out at 900 s.

Consider `CCc1ccc(-n2ncc3c(=O)n(Cc4nc(-c5ccc(Cl)cc5)no4)cnc32)cc1`, for which the RP-LC retention time is 1270 s.

`CCCNC(=O)c1cn(-c2ncccc2-c2nc(C(C)(C)C)no2)cn1` yielded an RP-LC retention time of 768 s.

The compound `COc1ccc(NC(=O)Cn2cccc2-c2nnc(-c3ccccc3)o2)cc1Cl` returned an RP-LC retention time of 997 s.

`Cc1ccccc1-c1nnc(CSc2nnc(NC(=O)c3ccccc3Br)s2)o1` gave an RP-LC retention time of 943 s.

In turn, `O=S(=O)(Cc1ccccc1F)N1CCC(OCCOCc2ccccc2)CC1` yielded an RP-LC retention time of 1010 s.

Regarding `COc1ccc(-c2ccc(/C=C3/SC(N4CCCCC4)=NC3=O)o2)cc1`, the RP-LC retention time stood at 1020 s.

Consider `CNC(=O)N1Cc2ccccc2OC2(CCN(C(C)C)CC2)C1`, for which the RP-LC retention time is 592 s.

(Values after the METLIN SMRT retention time set (Domingo-Almenara et al. 2019).)
